Reference: patent US10316017B2, “COT modulators and methods of use thereof” (Gilead Sciences, Inc., priority 2015, dated 2019)

Tests used:
[1] = test system: TNFα production in LPS-stimulated human monocytes; assay: Cot Monocyte TNFα Cell Based Assay; conditions: Homo sapiens, Monocyte, LPS-stimulated human monocytes, TNFα TR-FRET; read-out: EC50 TNF
How it was run: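 5,000 cells/well; cmpd 1 h, 37 °C, 0.5% DMSO final; LPS 50 pg/ml, 4 h, 37 °C; media TNFα by HTRF sandwich (cryptate/XL665), RT overnight; % control vs unstimulated/stimulated wells.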

[2] = biological target: T1, human Cot catalytic domain (30-397 amino acids) (Homo sapiens, UniProt P41279); assay: High Throughput Cot Biochemical Assay (KinEASE TR-FRET); conditions: Cot KinEASE TR-FRET, 400 μM ATP; read-out: IC50 HTRF
T1 construct: Purified recombinant human Cot catalytic domain (30-397 amino acids) was purchased from Cama Biosciences; purchased Cama Biosciences (so in the source)
T1 sequence (P41279 30-397): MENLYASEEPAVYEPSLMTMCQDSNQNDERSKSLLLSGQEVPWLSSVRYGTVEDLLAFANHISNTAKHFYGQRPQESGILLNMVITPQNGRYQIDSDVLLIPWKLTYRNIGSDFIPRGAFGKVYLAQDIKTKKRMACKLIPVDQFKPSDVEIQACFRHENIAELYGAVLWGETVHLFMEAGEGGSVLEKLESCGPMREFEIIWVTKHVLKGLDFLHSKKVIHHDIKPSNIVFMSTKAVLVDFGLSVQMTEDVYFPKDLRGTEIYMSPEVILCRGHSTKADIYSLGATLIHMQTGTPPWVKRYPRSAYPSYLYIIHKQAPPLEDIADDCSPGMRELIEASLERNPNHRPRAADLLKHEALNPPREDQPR
How it was run: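 First, purified human Cot (aa 30-397) at 5 nM phosphorylates an XL665-labeled STK3 peptide (1 μM) at 400 μM ATP, pH 7.0, 0.1% DMSO. Then a europium-conjugated phospho-specific antibody binds the product, giving the TR-FRET signal.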

Compound	EC50 [1]	IC50 [2]
[2H][C@](Nc1cc(Cl)c2ncc(C#N)c(NCC(C)(C)C)c2c1)(c1cn(C2(CO)COC2)nn1)c1ccccc1Cl [Example 965, 8-chloro-6-(((2-chlorophenyl) (1-(3-(hydroxymethyl)oxetan-3-yl)-1H-1,2,3-triazol-4-yl)methyl-d)amino)-4-(neopentylamino) quinoline-3-carbonitrile]	286 nM	14 nM
[2H][C@](Nc1cc(Cl)c2ncc(C#N)c(Nc3cccc(Cl)c3OC(F)(F)F)c2c1)(c1ccc(F)cc1)c1cn(C2CC2)nn1 [Example 966, (S)-8-chloro-4-((3-chloro-2-(trifluoromethoxy)phenyl)amino)-6-(((1-cyclopropyl-1H-1,2,3-triazol-4-yl)(4-fluorophenyl)methyl-d)amino)quinoline-3-carbonitrile]	≥ 1000 nM	86 nM
[2H][C@](Nc1cc(Cl)c2ncc(C#N)c(NC3(C(F)F)CC3)c2c1)(c1ccc(F)cc1)c1cn(C2CC2)nn1 [Example 967]	≥ 1000 nM	714 nM
CC(C)(C)CNc1c(C#N)cnc2c(C#N)cc(N[C@@H](c3ccc(F)cc3)c3cn(C4(c5ccccn5)CC4)nn3)cc12 [Example 968, (S)-6-(((4-fluorophenyl)(1-(1-(pyridin-2-yl)cyclopropyl)-1H-1,2,3-triazo1-4-yl)methyl)amino)-4-(neopentylamino) quinoline-3,8-dicarbonitrile]	110 nM	17 nM
[2H]C(Nc1cc(C#N)c2ncc(C#N)c(NCC(C)(C)C)c2c1)(c1cccc(C#N)c1)c1cn(C2(C(N)=O)CC2)nn1 (centres unmarked) [Example 969, 1-(4-((3-cyanophenyl)((3,8-dicyano-4-(neopentylamino)quinolin-6-yl)amino)methyl-d)-1H-1,2,3-triazol-1-yl)cyclopropane-1-carboxamide]	≥ 1000 nM	1 nM
CC(C)(C)CNc1c(C#N)cnc2c(Cl)cc(N[C@@H](c3ccccc3)c3cn(C(F)(F)C(N)=O)nn3)cc12 [Example 970, (S)-2-(4-(((8-chloro-3-cyano-4-(neopentylamino)quinolin-6-yl)amino)(phenyl)methyl)-1H-1,2,3-triazol-1-yl)-2,2-difluoroacetamide]	202 nM	8 nM
[2H][C@](Nc1cc(Cl)c2ncc(C#N)c(NCC(C)(C)C)c2c1)(c1cccc(C#N)c1)c1cn(C(F)(F)C(N)=O)nn1 [Example 971, (S)-2-(4-(((8-chloro-3-cyano-4-(neopentylamino)quinolin-6-yl)amino)(3-cyanophenyl)methyl-d)-1H-1,2,3-triazol-1-yl)-2,2-difluoroacetamide]	270 nM	4 nM
CC[C@@H](Nc1c(C#N)cnc2c(Cl)cc(N[C@H](c3cn(C(F)(F)C(N)=O)nn3)c3ccccc3Cl)cc12)c1ccccc1 [Example 972, 2-(4-((S)-((8-chloro-3-cyano-4-(((R)-1-phenylpropyl)amino)quinolin-6-yl)amino) (2-chlorophenyl)methyl)-1H-1,2,3-triazol-1-yl)-2,2-difluoroacetamide]	636 nM	27 nM
CC(C)(C)CNc1c(C#N)cnc2c(C#N)cc(N[C@@H](c3ccc(F)cc3)c3cn(C4(C5CC5)CC4)nn3)cc12 [Example 973, (S)-6-(((1-([1,1'-bi (cyclopropan)]-1-yl)-1H-1,2,3-triazol-4-yl)(4-fluorophenyl)methyl)amino)-4-(neopentylamino) quinoline-3,8-dicarbonitrile]	67 nM	9 nM
CC(C)(C)CNc1c(C#N)cnc2c(C#N)cc(N[C@@H](c3ccc(F)cc3)c3cn(C4(c5cccnc5)CC4)nn3)cc12 [Example 974, (S)-6-(((4-fluorophenyl)(1-(1-(pyridin-3-yl)cyclopropyl)-1H-1,2,3-triazol-4-yl)methyl)amino)-4-(neopentylamino) quinoline-3,8-dicarbonitrile]	46 nM	46 nM
CC(C)(C)CNc1c(C#N)cnc2c(C#N)cc(N[C@@H](c3ccccc3)c3cn(C4(C(N)=O)CC4)nn3)cc12 [Example 975, (S)-1-(4-(((3,8-dicyano-4-(neopentylamino)quinolin-6-yl)amino)(phenyl)methyl)-1H-1,2,3-triazol-1-yl)cyclopropane-1-carboxamide]	321 nM	3 nM
CC(C)(C)CNc1c(C#N)cnc2c(C#N)cc(N[C@@H](c3ccc(F)cc3)c3cn(C4(C#N)CC4)nn3)cc12 [Example 976, (S)-6-(((1-(1-cyanocyclopropyl)-1H-1,2,3-triazol-4-yl)(4-fluorophenyl)methyl)amino)-4-(neopentylamino)quinoline-3,8-dicarbonitrile]	58 nM	6 nM
CC(C)(C)CNc1c(C#N)cnc2c(C#N)cc(N[C@@H](c3ccc(F)cc3)c3cn(C4(C(N)=O)CC4)nn3)cc12 [Example 977, (S)-1-(4-(((3,8-dicyano-4-(neopentylamino)quinolin-6-yl)amino)(4-fluorophenyl)methyl)-1H-1,2,3-triazol-1-yl)cyclopropane-1-carboxamide]	285 nM	6 nM
CC(C)(C)CNc1c(C#N)cnc2c(C#N)cc(N[C@@H](c3ccc(F)cc3)c3cn(C4(C)CC4)nn3)cc12 [Example 978, (S)-6-(((4-fluorophenyl)(1-(1-methylcyclopropyl)-1H-1,2,3-triazol-4-yl)methyl)amino)-4-(neopentylamino)quinoline-3,8-dicarbonitrile]	65 nM	5 nM
CC(C)(C)CNc1c(C#N)cnc2c(C#N)cc(N[C@@H](c3ccc(F)cc3)c3cn(C4(CO)CC4)nn3)cc12 [Example 979, (S)-6-(((4-fluorophenyl)(1-(1-(hydroxymethyl)cyclopropyl)-1H-1,2,3-triazol-4-yl)methyl)amino)-4-(neopentylamino)quinoline-3,8-dicarbonitrile]	103 nM	4 nM
[2H][C@](Nc1cc(Cl)c2ncc(C#N)c(NCC(C)(C)C)c2c1)(c1ccc(Cl)cc1)c1cn(C2CCN(C3CC3)CC2)nn1 [Example 982, (S)-8-chloro-6-(((4-chlorophenyl)(1-(1-cyclopropylpiperidin-4-yl)-1H-1,2,3-triazol-4-yl)methyl-d)amino)-4-(neopentylarnino) quinoline-3-carbonitrile]	540 nM	23 nM
CC(C)(C)CNc1c(C#N)cnc2c(C#N)cc(N[C@@H](c3ccc(F)cc3)c3cn(C4(c5ccncc5)CC4)nn3)cc12 [Example 983, (S)-6-(((4-fluorophenyl)(1-(1-(pyridin-4-yl)cyclopropyl)-1H-1,2,3-triazol-4-yl)methyl)amino)-4-(neopentylamino) quinoline-3,8-dicarbonitrile]	39 nM	11 nM
CC(C)(C)CNc1c(C#N)cnc2c(C#N)cc(N[C@@H](c3ccc(F)cc3)c3cn(C4(c5cnccn5)CC4)nn3)cc12 [Example 984, (S)-6-(((4-fluorophenyl)(1-(1-(pyrazin-2-yl)cyclopropyl)-1H-1,2,3-triazol-4-yl)methyl)amino)-4-(neopentylamino)quinoline-3,8-dicarbonitrile]	93 nM	125 nM
CC(C)(C)CNc1c(C#N)cnc2c(C#N)cc(N[C@@H](c3ccc(F)cc3)c3cn(C4(C(N)=O)CCC4)nn3)cc12 [Example 985, (S)-1-(4-(((3,8-dicyano-4-(neopentylamino)quinolin-6-yl)amino)(4-fluorophenyl)methyl)-1H-1,2,3-triazol-1-yl)cyclobutane-1-carboxamide]	119 nM	4 nM
